Measurements published in patent publication US7700611B2, “Synthesis and crystalline forms of NPY5 antagonist” (Merck Sharp & Dohme Corp., priority 2005, dated 2010).

Assay: Thermodynamic stability of crystalline polymorphs (enantiotropic transition, storage)
Format: physicochemical
Details: for enantiotropic transition temperature between Form A and Form C: free base polymorphs; for thermodynamic stability of the crystalline form: relative to other crystalline forms of Compound I, temperature range as stated; for solid form stability at room temperature / on storage: room temperature (22° C.)

Row | enantiotropic transition temperature between Form A and Form C | SMILES | thermodynamic stability of the crystalline form | solid form stability at room temperature / on storage
1 | approximately 81 °C | O=C1O[C@]2(CC[C@H](C(=O)Nc3ccn(-c4ccccc4F)n3)CC2)c2cnccc21 [Form C, trans-N-[1-(2-fluorophenyl)-3-pyrazolyl]-3-oxosiro[6-azaisobenzofuran-1(3H),1′-cyclohexane]-4′-carboxamide] | most thermodynamically stable crystalline form of Compound I below 81 °C | not subject to transforming to another crystal form
2 | approximately 81 °C | O=C1O[C@]2(CC[C@H](C(=O)Nc3ccn(-c4ccccc4F)n3)CC2)c2cnccc21 [Form A, trans-N-[1-(2-fluorophenyl)-3-pyrazolyl]-3-oxospiro[6-azaisobenzofuran-1(3H),1′-cyclohexane]-4′-carboxamide] | most thermodynamically stable crystalline form of compound (I) above 81 °C | instability
